The record followed here is PMC11077991, “The small molecule CBR-5884 inhibits the Candida albicans phosphatidylserine synthase” (mBio, 2024).

Where “and” joins values, the source holds several entries; their conditions need not be identical. Equal values may be shown once. Read-outs that look alike come from different tables or passages of the source.

Experiment [1] has as its target purified C. albicans Cho1 (phosphatidylserine synthase) (Candida albicans, UniProt A0A1D8PF32). Description: malachite-green-based nucleotidase-coupled assay, dose-response. Format: biochemical. The note with it: top 200 µM, 3 h at 30°C, three replicates. The method, then:
A malachite-green-based nucleotidase-coupled assay was used to measure the PS synthesis activity of Cho1 (Fig. 1B). Cho1 catalyzes the production of PS and cytidylmonophosphate (CMP) from CDP-DAG and serine, where CMP can then be recognized and cleaved by the nucleotidase CD73 to release inorganic phosphate, which is subsequently detected by malachite green. To test whether this malachite-green-based assay can reflect Cho1 activity, a time-course test was performed with a fixed amount of purified Cho1 in the presence of substrates (Fig. 1C).
The bioactives library was purchased from Selleck in 2014, and the remaining libraries (anti-infectives and mechanism of action libraries) were assembled from compounds available at the Chemical Biology and Therapeutics Department at St. Jude Children’s Research Hospital. The anti-infectives library contains a curated list of antimicrobials and antiviral agents ([95]). The bioactive library has a compilation of compounds acquired from commercial sources and external academic collaborators. The mechanism of action set is a dynamic set of well-annotated compounds with comprehensive coverage of human targets and mechanisms of action ([96]). All compounds were dissolved in DMSO and 100 nL was transferred to a 384-well clear bottom plate (ThermoFisher Scientific, cat# 265203) using a Beckman Echo 650 acoustic liquid handler. Equal volumes of either the selective CD73 nucleotidase inhibitor AB680 at a final concentration of 1 µM (MedChemExpress, cat# HY-125286) or DMSO were used as positive and negative controls, respectively. A total of 30–35 ng of purified Cho1 protein was used in each reaction in 50 mM Tris-HCl (pH 8.0) for primary screening, combined with 100 µM CDP-DAG (Avanti, cat# 870510), 5 mM serine, 0.4 ng CD73 nucleotidase (R&D systems, cat# EA002), 1 mM MnCl2, 0.1% APX-100, and 0.1% digitonin, in a total volume of 10 µL. Counter screen reactions were set up by replacing only the purified Cho1 with 150 µM CMP, with all other components remaining constant. The 10 µL primary and counter screening reactions were delivered to each well of 384-well assay plates containing pre-aliquoted compounds from the library using a Multidrop Combi (ThermoFisher Scientific). […] After media transfer, assay plates were incubated for 3 h at 30°C. Plates were then removed and 32 µL of malachite green mixture [6 µL malachite A (2%, wt/vol, ammonium molybdate and 20%, vol/vol, sulfuric acid in H2O) +20 µL H2O + 6 µL malachite B (0.1%, wt/vol, malachite green oxalate and 0.5%, wt/vol, polyvinyl alcohol in H2O)] were added to each well via a MultiDrop Combi and incubated for an additional 10 min at room temperature. After incubation, plates were briefly centrifuged at 500 × g and absorbance at 620 nm was then measured using a Cytation7 plate reader (Biotek, Winooski, VT). Raw absorbance values of the compounds were normalized to DMSO (0% inhibition) and AB680 (100% inhibition) from both primary and counter screens, and % Δinhibition was calculated by […]. Z-factors for each plate were calculated using the in-house program RISE (Robust Investigation of Screening Experiments). All non-PAINs compounds that had >80% Δinhibition progressed to dose-response testing (82 total compounds). Dose-response experiments were performed in triplicate as described above using a 10-point, threefold serial dilution with the top concentration for each compound tested being 200 µM (range: 0.010161–200 μM). The absorbance at 620 nm was then measured using a PHERAstar FS multilabel reader (BMG, Cary, NC). Raw values were once again normalized to DMSO (0% inhibition) and AB680 (100% inhibition) and Z-factors for each plate were calculated using RISE. […]

Experiment [2] relates to C. albicans strains GDH2346, 3153A, TFPY412 and TFPY2307. Description: CLSI MIC broth microdilution, additional wild-type strains. Format: cell-based, Candida albicans. The note with it: RPMI MOPS pH 7.0, 37°C, 48 h. The method, then: Furthermore, there are no current reports on the antifungal effects of LOC14 and CBR-5884. To rule out the possibility that their inhibition is strain-specific, we treated four additional C. albicans wildtype strains—GDH2346 ([54]), 3153A ([55]), and two clinical isolates TFPY412 and TFPY2307—with LOC14 and CBR-5884. Tests were done in RPMI MOPS (pH 7.0) medium at 37°C for 48 h following the CLSI MIC broth microdilution protocol, and a cho1ΔΔ strain was included as a control (Fig. 3E and F).
Minimum inhibitory concentration (MIC) was determined following Clinical & Lab Standards Institute (CLSI) MIC broth microdilution protocol (Licensed to Todd Reynolds, license # Ord-1138682) ([98], [99]). Briefly, stock solutions of different compounds (purchased from MedChemExpress) were prepared at a concentration of 10 mM in DMSO and subsequently diluted as required in the same solvent. Wild-type C. albicans strain SC5314, as well as four additional wild-type strains—GDH2346, 3153A, TFPY412, and TFPY2307, were cultured overnight in YPD medium at 30°C, washed with water three times, and then diluted to a concentration of 2 × 10^3 cells/mL (OD600 = 0.00008) in one of the three media [minimal medium, minimal medium buffered with 50 mM HEPES (pH 7.0) and RPMI MOPS (pH 7.0)]. The cho1ΔΔ strain was also included as a control. […]
Background: Broth dilution looks for growth in wells or tubes with falling amounts of substance.

Setting [3] is: Best-fit IC50, inhibition of Cho1, 10-point dose-response.

purified C. albicans Cho1 (phosphatidylserine synthase), sequence (A0A1D8PF32 entry or part of it): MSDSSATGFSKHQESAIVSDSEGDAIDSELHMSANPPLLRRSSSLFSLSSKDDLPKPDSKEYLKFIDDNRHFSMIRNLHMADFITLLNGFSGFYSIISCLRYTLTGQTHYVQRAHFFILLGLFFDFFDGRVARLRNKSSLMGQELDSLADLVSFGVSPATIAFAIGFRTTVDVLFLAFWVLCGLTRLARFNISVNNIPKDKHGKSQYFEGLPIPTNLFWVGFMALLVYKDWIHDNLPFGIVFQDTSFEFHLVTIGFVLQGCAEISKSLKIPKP

With `CCOC(=O)c1sc(NC(=O)c2ccco2)c(SC#N)c1C` [CBR-5884], the IC50 (in general, the concentration that gives 50% inhibition) in experiment [1] (setting [3]) was ≤ 20 µM and ~8.44 µM. Also, in experiment [2], the “growth inhibition of four additional wild-type strains” value is “all strains were inhibited”.
As for `O=c1c2ccccc2[se]n1-c1ccccc1` [Ebselen], in experiment [1] (setting [3]), the IC50 is ≤ 20 µM and ~11.1 µM and 11.1 µM.
For the compound `O=C(C1CC1)N1CCN(Cn2sc3ccccc3c2=O)CC1` [LOC14], in experiment [1] (10-point dose-response, read-out: Best-fit IC50, inhibition of Cho1), the IC50 was approximately 75.5 µM. Besides, the “growth inhibition of four additional wild-type strains” value in experiment [2] is reported as “all strains were inhibited”.
